Data published in US20150105252A1, “SUBSTITUTED PYRAZOLES AS HERBICIDES” (E I DU PONT DE NEMOURS AND COMPANY, priority 2013, published 2015).

Key:
[1] = tested on: ryegrass, Italian; assay: Test C postemergence; type: in vivo, Lolium multiflorum
Description: (§1) Seeds of plant species selected from blackgrass (Alopecurus myosuroides), ryegrass, Italian (Italian ryegrass, Lolium multiflorum), wheat (winter wheat, Triticum aestivum), galium (catchweed bedstraw, Galium aparine), corn (Zea mays), crabgrass, large (large crabgrass, Digitaria sanguinalis), foxtail, giant (giant foxtail, Setaria faberii), johnsongrass (Sorghum halepense), lambsquarters (Chenopodium album), morningglory (Ipomoea coccinea), nutsedge, yellow (yellow nutsedge, Cyperus esculentus), pigweed (redroot pigweed, Amaranthus retroflexus), ragweed (common ragweed, Ambrosia elation), soybean (Glycine max), barnyardgrass (Echinochloa crus-galli), oilseed rape (Brassica napus), waterhemp (common waterhemp, Amaranthus rudis), oat, wild (wild oat, Avena fatua), kochia (Kochia scoparia), Surinam grass (Brachiaria decumbens), foxtail, green (green foxtail, Setaria viridis), goosegrass (Eleusine indica), bromegrass, downy (downy bromegrass, Bromus tectorum), nightshade (eastern black nightshade, Solanum ptycanthum), cocklebur (common cocklebur, Xanthium strumarium), cupgrass, woolly (woolly cupgrass, Eriochloa villosa), bermudagrass (Cynodon dactylon), sunflower, (common oilseed sunflower, Helianthus annuus), Russian thistle (Salsola kali), and velvetleaf (Abutilon theophrasti) were planted into a blend of loam soil and sand and treated preemergence with test chemicals formulated in a non-phytotoxic solvent mixture which included a surfactant.
(§2) At the same time, plants selected from these crop and weed species and also chickweed (common chickweed, Stellaria media), canarygrass (littleseed canarygrass, Phalaris minor), and deadnettle (henbit deadnettle, Lamium amplexicaule), were planted in pots containing Redi-Earth® planting medium (Scotts Company, 14111 Scottslawn Road, Marysville, Ohio 43041) comprising spaghnum peat moss, vermiculite, wetting agent and starter nutrients and treated with postemergence applications of test chemicals formulated in the same manner. Plants ranged in height from 2 to 18 cm (1- to 4-leaf stage) for postemergence treatments. Treated plants and controls were maintained in a greenhouse for 13 to 15 days, after which time all species were compared to controls and visually evaluated. Plant response ratings, summarized in Table C, are based on a scale of 0 to 100 where 0 is no effect and 100 is complete control. A dash (-) response means no test result.

[2] = tested on: galium; assay: Test C postemergence; type: in vivo, Galium aparine; details: for Plant response rating, Galium: postemergence
Description: as §1, §2

[3] = tested on: foxtail, giant; assay: Test C postemergence; type: in vivo, Setaria faberii
Description: as §1, §2

[4] = tested on: lambsquarters; assay: Test C postemergence; type: in vivo, Chenopodium album
Description: as §1, §2

[5] = tested on: morningglory; assay: Test C postemergence; type: in vivo, Ipomoea coccinea
Description: as §1, §2

[6] = tested on: nutsedge, yellow; assay: Test C postemergence; type: in vivo, Cyperus esculentus
Description: as §1, §2

[7] = tested on: pigweed; assay: Test C postemergence; type: in vivo, Amaranthus retroflexus
Description: as §1, §2

[8] = tested on: ragweed; assay: Test C postemergence; type: in vivo, Ambrosia elation
Description: as §1, §2

[9] = tested on: soybean; assay: Test C postemergence; type: in vivo, Glycine max
Description: as §1, §2

[10] = tested on: barnyardgrass; assay: Test C postemergence; type: in vivo, Echinochloa crus-galli
Description: as §1, §2

[11] = tested on: waterhemp; assay: Test C postemergence; type: in vivo, Amaranthus rudis
Description: as §1, §2

[12] = tested on: oat, wild; assay: Test C postemergence; type: in vivo, Avena fatua
Description: as §1, §2

[13] = tested on: kochia; assay: Test C postemergence; type: in vivo, Kochia scoparia
Description: as §1, §2

[14] = tested on: velvetleaf; assay: Test C postemergence; type: in vivo, Abutilon theophrasti
Description: as §1, §2

[15] = tested on: chickweed; assay: Test C postemergence; type: in vivo, Stellaria media
Description: as §1, §2

[16] = tested on: lambsquarters; assay: Test C preemergence; type: in vivo, Chenopodium album; details: for Lambsquarters plant response rating: preemergence
Description: as §1, §2

[17] = Postemergence, 31 g ai/ha, visually evaluated after 13 to 15 days
[18] = postemergence, 62 g ai/ha, scale 0 to 100
[19] = postemergence, 250 g ai/ha, scale 0 to 100 (0 no effect, 100 complete control)
[20] = postemergence, 125 g ai/ha, scale 0 to 100, 0 no effect, 100 complete control

**Q.** With `CCc1cc(C(=O)NCC(F)(F)F)nn1Cc1ccnc(C(F)(F)F)c1` [Compound 78, 5-ethyl-N-(2,2,2-trifluoroethyl)-1-[[(2-trifluoromethyl)-4-pyridinyl]methyl]-1H-pyrazole-3-carboxamide] as the compound, how does the “Plant response rating (scale of 0 to 100 where 0 is no effect and 100 is complete control), Ryegrass, Italian” value [1, 17] read?
**A.** The value was 5.

**Q.** And the “Ryegrass, Italian plant response rating” value [1, 18]?
**A.** Its value is 5.

**Q.** And the “Plant response rating, Ryegrass, Italian” value [1, 19]?
**A.** The value was 35.

**Q.** What about the “Plant response rating, Ryegrass, Italian” value [1, 20] of the same compound?
**A.** The value was 5.

**Q.** And the “Plant response rating (scale of 0 to 100 where 0 is no effect and 100 is complete control), Galium” value [2, 17]?
**A.** The value was 80.

**Q.** What about the “Plant response rating, Galium” value ([2]; 250 g ai/ha, scale 0 to 100 (0 no effect, 100 complete control)) of the same compound?
**A.** The value was 80.

**Q.** What about the “Plant response rating, Galium” value ([2]; 125 g ai/ha, scale 0 to 100, 0 no effect, 100 complete control) of the same compound?
**A.** The value was 80.

**Q.** And the “Plant response rating (scale of 0 to 100 where 0 is no effect and 100 is complete control), Foxtail, Giant” value [3, 17]?
**A.** Its value is 15.

**Q.** What about the “Foxtail, Giant plant response rating” value [3, 18] of the same compound?
**A.** Its value is 20.

**Q.** And the “Plant response rating, Foxtail, Giant” value [3, 19]?
**A.** The value was 95.

**Q.** And the “Plant response rating, Foxtail, Giant” value [3, 20]?
**A.** The value was 50.

**Q.** What about the “Plant response rating (scale of 0 to 100 where 0 is no effect and 100 is complete control), Lambsquarters” value [4, 17] of the same compound?
**A.** The value was 60.

**Q.** What about the “Lambsquarters plant response rating” value [4, 18] of the same compound?
**A.** Its value is 75.

**Q.** What about the “Plant response rating, Lambsquarters” value [4, 19] of the same compound?
**A.** Its value is 98.

**Q.** What about the “Plant response rating, Lambsquarters” value [4, 20] of the same compound?
**A.** The value was 95.

**Q.** What about the “Plant response rating (scale of 0 to 100 where 0 is no effect and 100 is complete control), Morningglory” value [5, 17] of the same compound?
**A.** The value was 70.

**Q.** What about the “Morningglory plant response rating” value [5, 18] of the same compound?
**A.** The value was 80.

**Q.** What about the “Plant response rating, Morningglory” value [5, 19] of the same compound?
**A.** Its value is 100.

**Q.** And the “Plant response rating, Morningglory” value [5, 20]?
**A.** The value was 90.

**Q.** And the “Plant response rating (scale of 0 to 100 where 0 is no effect and 100 is complete control), Nutsedge, Yellow” value [6, 17]?
**A.** Its value is 5.

**Q.** And the “Nutsedge, Yellow plant response rating” value [6, 18]?
**A.** The value was 5.

**Q.** And the “Plant response rating, Nutsedge, Yellow” value [6, 19]?
**A.** Its value is 15.

**Q.** And the “Plant response rating, Nutsedge, Yellow” value [6, 20]?
**A.** Its value is 10.

**Q.** And the “Plant response rating (scale of 0 to 100 where 0 is no effect and 100 is complete control), Pigweed” value [7, 17]?
**A.** The value was 40.

**Q.** What about the “Pigweed plant response rating” value [7, 18] of the same compound?
**A.** The value was 75.

**Q.** What about the “Plant response rating, Pigweed” value [7, 19] of the same compound?
**A.** Its value is 98.

**Q.** What about the “Plant response rating, Pigweed” value [7, 20] of the same compound?
**A.** The value was 90.

**Q.** And the “Plant response rating (scale of 0 to 100 where 0 is no effect and 100 is complete control), Ragweed” value [8, 17]?
**A.** Its value is 35.

**Q.** And the “Ragweed plant response rating” value [8, 18]?
**A.** Its value is 75.

**Q.** And the “Plant response rating, Ragweed” value [8, 19]?
**A.** Its value is 95.

**Q.** What about the “Plant response rating, Ragweed” value [8, 20] of the same compound?
**A.** Its value is 85.

**Q.** And the “Plant response rating (scale of 0 to 100 where 0 is no effect and 100 is complete control), Soybean” value [9, 17]?
**A.** The value was 50.

**Q.** What about the “Soybean plant response rating” value [9, 18] of the same compound?
**A.** Its value is 80.

**Q.** And the “Plant response rating, Soybean” value [9, 19]?
**A.** The value was 85.

**Q.** And the “Plant response rating, Soybean” value [9, 20]?
**A.** The value was 80.

**Q.** What about the “Plant response rating (scale of 0 to 100 where 0 is no effect and 100 is complete control), Barnyardgrass” value [10, 17] of the same compound?
**A.** Its value is 5.

**Q.** And the “Barnyardgrass plant response rating” value [10, 18]?
**A.** Its value is 15.

**Q.** And the “Plant response rating, Barnyardgrass” value [10, 19]?
**A.** The value was 80.

**Q.** What about the “Plant response rating, Barnyardgrass” value [10, 20] of the same compound?
**A.** The value was 15.

**Q.** And the “Plant response rating (scale of 0 to 100 where 0 is no effect and 100 is complete control), Waterhemp” value [11, 17]?
**A.** The value was 50.

**Q.** What about the “Waterhemp plant response rating” value [11, 18] of the same compound?
**A.** The value was 70.

**Q.** What about the “Plant response rating, Waterhemp” value [11, 19] of the same compound?
**A.** Its value is 95.

**Q.** And the “Plant response rating, Waterhemp” value [11, 20]?
**A.** The value was 80.

**Q.** And the “Plant response rating (scale of 0 to 100 where 0 is no effect and 100 is complete control), Oat, Wild” value [12, 17]?
**A.** Its value is 5.

**Q.** And the “Oat, Wild plant response rating” value [12, 18]?
**A.** The value was 5.

**Q.** What about the “Plant response rating, Oat, Wild” value [12, 19] of the same compound?
**A.** Its value is 30.

**Q.** What about the “Plant response rating, Oat, Wild” value [12, 20] of the same compound?
**A.** The value was 10.

**Q.** And the “Plant response rating (scale of 0 to 100 where 0 is no effect and 100 is complete control), Kochia” value [13, 17]?
**A.** Its value is 85.

**Q.** What about the “Kochia plant response rating” value [13, 18] of the same compound?
**A.** Its value is 90.

**Q.** And the “Plant response rating, Kochia” value [13, 19]?
**A.** Its value is 90.

**Q.** What about the “Plant response rating, Kochia” value [13, 20] of the same compound?
**A.** Its value is 90.

**Q.** What about the “Plant response rating (scale of 0 to 100 where 0 is no effect and 100 is complete control), Velvetleaf” value [14, 17] of the same compound?
**A.** The value was 15.

**Q.** And the “Velvetleaf plant response rating” value [14, 18]?
**A.** The value was 20.

**Q.** What about the “Plant response rating, Velvetleaf” value [14, 19] of the same compound?
**A.** Its value is 75.

**Q.** What about the “Plant response rating, Velvetleaf” value [14, 20] of the same compound?
**A.** Its value is 50.

**Q.** And the “Plant response rating (scale of 0 to 100 where 0 is no effect and 100 is complete control), Chickweed” value [15, 17]?
**A.** The value was 65.

**Q.** What about the “Chickweed plant response rating” value [15, 18] of the same compound?
**A.** The value was 80.

**Q.** And the “Plant response rating, Chickweed” value [15, 19]?
**A.** The value was 85.

**Q.** And the “Plant response rating, Chickweed” value [15, 20]?
**A.** The value was 80.

**Q.** Which results are given for `CCONC(=O)c1cc(CC)n(Cc2cc(C(F)(F)F)no2)n1` [Compound 125]?
**A.** Plant response rating (scale of 0 to 100), Lambsquarters ([16]; Preemergence, 250 g ai/ha): 100; Lambsquarters plant response rating ([16]; 31 g ai/ha, visual rating, scale 0 to 100 (0 no effect, 100 complete control), 13 to 15 days): 15; Lambsquarters plant response rating ([16]; 62 g ai/ha, scale 0 to 100 (0 no effect, 100 complete control), 13 to 15 days): 35; Lambsquarters plant response rating ([16]; 125 g ai/ha, scale 0 to 100, 0 is no effect, 100 is complete control): 75
